Data set [1] addresses T1, human metastin receptor hOT7T175 (Homo sapiens, UniProt Q969F8, L364H).
T1 construct: encoding the entire length of human metastin receptor hOT7T175; expressed in transfected cells; host or cells: CHO/dhFr- cells (ATCC #CRL-9096) stably transfected with pAKKO-hOT7T175; clone h175-16 was used as whole cells for FLIPR
Nature of the data set: binding inhibiting activity: 125I-metastin (40-54) binding to cell membrane fraction of h175 KB34 cells. Conditions: room temperature 60 minutes, read-out: binding inhibiting activity, represented by the IC50 value. Here is the method:
cDNA fragments (SEQ ID NO: 2) encoding the entire length of human metastin receptor hOT7T175 were incorporated into expression vector pAKKO1.11H to produce animal cell expression plasmids pAKKO-hOT7T175. CHO/dhFr-cells (ATCC, #CRL-9096) were seeded onto 6 cm culture dishes (Becton Dickinson) at a density of 0.3×10^6 cells/dish, and cultured in the conditions of 48 hours, 37° C. and 5% CO2. 5 μg pAKKO-hOT7T175 plasmid DNA was transfected to the resultant cells by a known method (described in Example 3 of WO 00/24890) using the Cellphect Transfection Kit (Amersham, #27-9268-01). The DNA-transfected cells were cultured in the Dulbecco's modified Eagle medium (DMEM) (Sigma, #D6046) containing 10% dialyzed FBS (Biowest, #S180D), 1× Non-Essential Amino Acid (Invitrogen, #11140-050) and 50 μg/ml Gentamycin (Invitrogen, #15750-060; and cell strains stably expressing the plasmid genes were selected. The obtained 41 clones were treated with the FLIPR assay (in accordance with the method described in Example 3 of WO 00/24890), and the reactivity to the human metastin […] (Nos. 40 to 54 of the human metastin sequence; Peptide Institute, Inc., #4389-v) was evaluated. In the end, h175 KB34 cell strains were selected. By substantially the same method, h175-16 cell strains were also produced.
The h175 KB34 cells were cultured to be on the stage of 40-50% confluency using a cell factory (Nunc, #164327), and then cells were recovered in the following method.
First, the medium was disposed, and the cells were washed twice with 200 ml EDTA/PBS(−). Another 200 ml of EDTA/PBS(−) was added, and the cells were kept still for 20 minutes at room temperature until being peeled off. The cells were recovered into four 50 ml tubes (Becton Dickinson, #352070), and centrifuged (2,000 rpm, 10 min., 4° C.) by a reduced performance centrifuge (TOMY, RL-101). The supernatant was disposed, and the pellets in the four tubes were each suspended with 10 ml EDTA/PBS(−) and collected into one tube (Becton Dickinson, #352070). The pellet was further centrifuged (2,000 rpm, 10 min., 4° C.). The resultant pellet was suspended with 20 ml ice-cooled homogenizer buffer [10 mM NaHCO3, 2 mM EGTA, 0.2 mM magnesium acetate, 10 μg/ml Leupeptin (Peptide Institute, Inc., #4041), 10 μg/ml E-64 (Peptide Institute, Inc., # 4096), 100 μg/ml o-phenanthroline (Dojindo Laboratories), 90 μg/ml PMSF (Wako Pure Chemical Industries, Ltd.), 10 μg/ml Pepstatin A (Peptide Institute, Inc., #4397), pH7.3]. The cell suspension was homogenized 3 times, each for 30 seconds, using a Polytron homogenizer. The resultant homogenate was centrifuged (2,500 rpm, 10 min, 4° C.) using a high performance refrigerated centrifuge (Hitachi, Ltd., CR26H). The supernatant was recovered into a super-centrifuge tube, and super-centrifuged (30,000 rpm, 60 min, 4° C.) using a super-centrifuge (Hitachi, Ltd., SCP70H). 3 ml homogenizer buffer was added to the resultant pellet, and the pellet was suspended by pipetting. 3 ml glycerol (Wako Pure Chemical Industries, Ltd.) was added to the resultant suspension and diluted 2-folds. The resultant substance was used as a cell membrane fraction of the h175 KB34 cells. Each […] of the membrane fraction was put into a 1.5 ml tube (Eppendorf, #0030120.086), stored in a freezer (−30 C) so as not to be frozen, and used for a binding assay.
An assay buffer was prepared on the day of the test by adding, to each 100 ml of an assay basic buffer [20 mM Tris, 2.5 mM Magnesium Acetate, 2 mM EGTA, pH 7.4], 1 mg Leupeptin (Peptide Institute, Inc., 4041), 1 mg E-64 (Peptide Institute, Inc., 4096), 10 mg o-phenanthroline (Dojindo Laboratories), 9 mg PMSF (Wako Pure Chemical Industries, Ltd.) and 1 mg Pepstatin A (Peptide Institute, Inc., 4397). The prepared assay buffer was stored at 4° C. until being used. When the measurement was to be performed with no BSA, the above-described assay buffer was used. […]

pIC50: −log10 of the molar value. Bounds are passed on as bounds.

T1 sequence (Q969F8 whole entry L364H): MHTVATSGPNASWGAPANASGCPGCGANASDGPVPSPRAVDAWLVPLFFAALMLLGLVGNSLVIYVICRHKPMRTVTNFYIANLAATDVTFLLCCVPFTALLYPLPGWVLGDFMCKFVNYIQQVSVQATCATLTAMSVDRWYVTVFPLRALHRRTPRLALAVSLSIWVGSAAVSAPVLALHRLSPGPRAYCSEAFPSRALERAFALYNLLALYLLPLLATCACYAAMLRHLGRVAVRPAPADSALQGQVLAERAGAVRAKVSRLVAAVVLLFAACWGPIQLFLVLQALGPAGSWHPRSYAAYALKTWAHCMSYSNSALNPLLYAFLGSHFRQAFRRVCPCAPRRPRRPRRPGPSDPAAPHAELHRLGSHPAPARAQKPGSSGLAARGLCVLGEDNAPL

Consider `CCN(C)CCC(=O)Nc1cccc(-c2cc(-c3ccc(F)cc3O)nc(NC(=O)c3ccco3)c2C#N)c1.Cl` [Example 316, N-[3-cyano-4-{3-[(N-ethyl-N-methyl-β-alanyl)amino]phenyl}-6-(4-fluoro-2-hydroxyphenyl)pyridin-2-yl]-2-furamide hydrochloride], for which the melting point – broadly, the temperature, or range, at which the solid turns liquid – lay in the range of 223 to 224 °C. The pIC50 (as a rule, −log10 of the IC50, conventionally taken in molar units) in data set [1] is at least 5.00.
The corresponding values for `CN1CCN(c2cccc(-c3cc(-c4ccc(F)cc4O)nc(NC(=O)c4ccco4)c3C#N)c2)CC1.Cl` [Example 327, N-{3-cyano-6-(4-fluoro-2-hydroxyphenyl)-4-[3-(4-methylpiperazin-1-yl)phenyl]pyridin-2-yl}-2-furamide hydrochloride] are 254 to 259 °C and at least 5.00.
`Cl.N#Cc1c(-c2cccc(NC(=O)[C@@H]3C[C@@H](O)CN3)c2)cc(-c2ccc(F)cc2O)nc1NC(=O)c1ccco1` [Example 298, (4R)—N-{3-[3-cyano-6-(4-fluoro-2-hydroxyphenyl)-2-(2-furoylamino)pyridin-4-yl]phenyl}-4-hydroxy-L-prolinamide hydrochloride] showed a melting point of 260 to 262 °C. For the same compound, the pIC50 in data set [1] is at least 5.00.
The matching figures for `CC(C)C(N)CC(=O)Nc1cccc(-c2cc(-c3ccc(F)cc3O)nc(NC(=O)c3ccco3)c2C#N)c1.Cl` (stereo not shown) [Example 266, N-[4-{3-[(3-amino-4-methylpentanoyl)amino]phenyl}-3-cyano-6-(4-fluoro-2-hydroxyphenyl)pyridin-2-yl]-2-furamide hydrochloride]: 214 to 217 °C and at least 5.00.
The corresponding values for `CC(N)CC(=O)Nc1cccc(-c2cc(-c3ccc(Cl)cc3O)nc(NC(=O)c3ccco3)c2C#N)c1.Cl` (stereo not shown) [Example 238, N-[4-{3-[(3-aminobutanoyl)amino]phenyl}-6-(4-chloro-2-hydroxyphenyl)-3-cyanopyridin-2-yl]-2-furamide hydrochloride] are 206 to 214 °C and at least 5.00.
For the compound `Cl.N#Cc1c(-c2cccc(C(=O)NCCCn3ccnc3)c2)cc(-c2ccc(Cl)cc2O)nc1NC(=O)c1nccs1` [Example 250, N-{6-(4-chloro-2-hydroxyphenyl)-3-cyano-4-[3-({[3-(1H-imidazol-1-yl)propyl]amino}carbonyl)phenyl]pyridin-2-yl}-1,3-thiazole-2-carboxamide hydrochloride], the melting point is 208 to 212 °C. The pIC50 in data set [1] was at least 5.00.
The matching figures for `Cl.N#Cc1c(-c2cccc(NC(=O)[C@H]3CCCN3)c2)cc(-c2ccc(Cl)cc2O)nc1NC(=O)c1ccco1` [Example 296, N-{3-[6-(4-chloro-2-hydroxyphenyl)-3-cyano-2-(2-furoylamino)pyridin-4-yl]phenyl}-D-prolinamide hydrochloride]: 208 to 213 °C and at least 5.00.
The matching figures for `Cl.N#Cc1c(-c2cccc(N3CCCNCC3)c2)cc(-c2ccc(F)cc2O)nc1NC(=O)c1ccco1` [Example 326, N-[3-cyano-4-[3-(1,4-diazepan-1-yl)phenyl]-6-(4-fluoro-2-hydroxyphenyl)pyridin-2-yl]-2-furamide hydrochloride]: 254 to 259 °C and at least 5.00.
In turn, `Cl.N#Cc1c(-c2cccc(NC(=O)[C@@H]3CCCC[C@@H]3N)c2)cc(-c2ccc(F)cc2O)nc1NC(=O)c1ccco1` [Example 284, N-{4-[3-({[(1R,2S)-2-aminocyclohexyl]carbonyl}amino)phenyl]-3-cyano-6-(4-fluoro-2-hydroxyphenyl)pyridin-2-yl}-2-furamide hydrochloride] displayed a melting point of 220 to 223 °C. In data set [1], the pIC50 was at least 5.00.
The corresponding values for `CCN(CC)CCNC(=O)c1cccc(-c2cc(-c3ccc(F)cc3O)nc(NC(=O)c3ccco3)c2C#N)c1.Cl` [Example 310, N-[3-cyano-4-[3-({[2-(diethylamino)ethyl]amino}carbonyl)phenyl]-6-(4-fluoro-2-hydroxyphenyl)pyridin-2-yl]-2-furamide hydrochloride] are 200 to 204 °C and at least 5.00.
Take `CCN(CC)[C@@H](COC)C(=O)Nc1cccc(-c2cc(-c3ccc(F)cc3O)nc(NC(=O)c3ccco3)c2C#N)c1.Cl` [Example 306, N-[3-cyano-4-{3-[(N,N-diethyl-O-methyl-L-seryl)amino]phenyl}-6-(4-fluoro-2-hydroxyphenyl)pyridin-2-yl]-2-furamide hydrochloride]: the melting point was 192 to 196 °C. In addition, the pIC50 in data set [1] was at least 5.00.
The matching figures for `CN(C)[C@H]1CCCC[C@H]1C(=O)Nc1cccc(-c2cc(-c3ccc(F)cc3O)nc(NC(=O)c3ccco3)c2C#N)c1.Cl` [Example 287, N-{3-cyano-4-[3-({[(1R,2S)-2-(dimethylamino)cyclohexyl]carbonyl}amino)phenyl]-6-(4-fluoro-2-hydroxyphenyl)pyridin-2-yl}-2-furamide hydrochloride]: 217 to 218 °C and at least 5.00.
`Cl.N#Cc1c(-c2cccc(C(=O)NCCN)c2)cc(-c2ccc(F)cc2O)nc1NC(=O)c1cccs1` [Example 81, N-[4-(3-{[(2-aminoethyl)amino]carbonyl}phenyl)-3-cyano-6-(4-fluoro-2-hydroxyphenyl)pyridin-2-yl]thiophene-2-carboxamide hydrochloride] showed a melting point of 228 to 229 °C. Moreover, the pIC50 in data set [1] was at least 5.00.
The matching figures for `Cl.N#Cc1c(-c2cccc(C(=O)NC3CCNC3)c2)cc(-c2ccc(F)cc2O)nc1NC(=O)c1ccco1` (stereo not shown) [Example 76, N-(3-cyano-6-(4-fluoro-2-hydroxyphenyl)-4-{3-[(pyrrolidin-3-ylamino)carbonyl]phenyl}pyridin-2-yl)-2-furamide hydrochloride]: 225 to 226 °C and at least 5.00.
The matching figures for `CN1C[C@H](O)C[C@H]1C(=O)Nc1cccc(-c2cc(-c3ccc(F)cc3O)nc(NC(=O)c3ccco3)c2C#N)c1.Cl` [Example 299, (4R)—N-{3-[3-cyano-6-(4-fluoro-2-hydroxyphenyl)-2-(2-furoylamino)pyridin-4-yl]phenyl}-4-hydroxy-1-methyl-L-prolinamide hydrochloride]: 215 to 217 °C and at least 5.00.
The matching figures for `Cl.N#Cc1c(-c2cccc(NC(=O)C3(N)CC3)c2)cc(-c2ccc(Cl)cc2O)nc1NC(=O)c1ccco1` [Example 69, N-[4-(3-{[(1-aminocyclopropyl)carbonyl]amino}phenyl)-6-(4-chloro-2-hydroxyphenyl)-3-cyanopyridin-2-yl]-2-furamide hydrochloride]: 190 to 196 °C and at least 5.00.
`CN(C)CCNC(=O)c1cccc(-c2cc(-c3ccc(F)cc3O)nc(NC(=O)c3ccco3)c2C#N)c1.Cl` [Example 309, N-[3-cyano-4-[3-({[2-(dimethylamino)ethyl]amino}carbonyl)phenyl]-6-(4-fluoro-2-hydroxyphenyl)pyridin-2-yl]-2-furamide hydrochloride]: the melting point was in the range of 200 to 204 °C. Besides, in data set [1], the pIC50 was at least 5.00.

The values are drawn from patent US20090156646A1, “PYRIDYLPHENOL COMPOUND AND USE THEREOF” (TAKEDA PHARMACEUTICAL COMPANY LIMITED, priority 2005, published 2009).
